In patent US20250332170A1, “VANDETANIB REDUCES INFLAMMATORY CYTOKINES AND AMELIORATES COVID-19” (Collaborations Pharmaceuticals, Inc., priority 2021, published 2025):
“Also recorded” adds a separate entry of the source.

Tested on: Pseudo SARS-CoV-2 D614G
Type: cell-based

Compound | SARS-CoV-2 Spike protein-mediated entry, pseudovirus assay
CN1CCN(c2ccc(C(=O)Nc3n[nH]c4ccc(Cc5cc(F)cc(F)c5)cc34)c(NC3CCOCC3)c2)CC1 [Entrectinib] | no significant activity
COc1cc2c(Nc3ccc(Br)cc3F)ncnc2cc1OCC1CCN(C)CC1 [Vandetanib] | active; also recorded: decreased viral entry
